Assays:
peroxidase = assay: Peroxidase assay in saliva (Amplex Red); type: biochemical; details: 500 ppm, 30 minutes, FIGS. 26-29
Galactose Oxidase = details: dilute (3.5%) saliva; FIG. 13
Lysozyme = biological target: T1, Lysozyme (Homo sapiens, UniProt P61626); assay: Lysozyme inhibition saliva screening (fluorescein-labeled Micrococcus lysodeikticus); type: biochemical; details: for inhibition of Lysozyme: 100% saliva samples (data not shown); for RFU Reading (60 mins): saliva, test compound prepared at 5,000 ppm; for Lysozyme Inhibitor Activity: dilute (3.5%) saliva, FIG. 12
T1 construct: from tissue; host or cells: saliva (3.5% dilute or 100%)
T1 sequence (P61626 19-148): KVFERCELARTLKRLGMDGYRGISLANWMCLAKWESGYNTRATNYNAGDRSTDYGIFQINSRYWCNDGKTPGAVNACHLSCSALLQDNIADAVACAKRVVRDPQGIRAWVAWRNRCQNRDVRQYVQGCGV
Excerpt: At least one assay used for the detection of […], as used herein includes the use of a Micrococcus lysodeikticus labeled with fluorescein. The assay measures lysozyme activity on Micrococcus lysodeikticus cell walls, which are labeled to such a degree that the fluorescence is quenched. Lysozyme activity can relieve this quenching; yielding increased fluorescence that is proportional to lysozyme activity.
For the assay, test compounds are mixed with saliva, prior to the addition of lysozyme substrate. The test compounds, such as GRAS materials, are prepared at a concentration of 5,000 ppm in distilled water. Following this preparation, 50 μl of lysozyme substrate at 1 mg/ml (Molecular Probes EnzChek Lysozyme Assay Kit) that has been pre-heated to 37° C. is added to 50 μl of the test compound. To initiate the assay, 50 μl of a dilute (3.5%) or full strength (100%) saliva solution is added to the mixture. Following the initiation, each mixture is measured at 1 minute intervals using a spectrophotometer (such as Molecular Devices M5 reader) for absorption at 494 nm and fluorescence emission at 518 nm. Temperatures of the mixtures are kept constant at 37° C. during the assay.
A series of GRAS compounds were tested using the Lysozyme assay protocol described above. […] Further details of these five compounds may also be seen in Table 5.

protease = details: cited from earlier work

In the case of O=C(O)c1ccccc1 [CDI #16, Benzoic acid], the peroxidase inhibition (peroxidase) is reported as “significant peroxidase inhibition capabilities”.

With Cn1c(=O)c2c(ncn2C)n(C)c1=O [CDI #33, Caffeine] the peroxidase inhibition (peroxidase) was “significant peroxidase inhibition capabilities”.

With COc1ccc(O)c(C(C)(C)C)c1 [CDI-039, 3-tert--butyl-hydroxyanisole] the peroxidase inhibition (peroxidase) was “significant peroxidase inhibition capabilities” and the “Galactose Oxidase Inhibitor Activity” value (Galactose Oxidase) was “shown to have Galactose Oxidase Inhibitor Activity”.

With O=C(O)c1ccccc1 [CDI-40, Benzoic acid] the “inhibition of Lysozyme” value (Lysozyme) was “shown to inhibit Lysozyme”, the “RFU Reading (60 mins)” value (Lysozyme) was 35.82 RFU and the “Lysozyme Inhibitor Activity” value (Lysozyme) was “shown to have Lysozyme Inhibitor Activity”. The “Galactose Oxidase Inhibitor Activity” value (Galactose Oxidase) was “shown to have Galactose Oxidase Inhibitor Activity”.

For CC(=O)O [CDI-047, Acetic acid], the “inhibition of Lysozyme” value (Lysozyme) was “shown to inhibit Lysozyme”, the “RFU Reading (60 mins)” value (Lysozyme) was 33.53 RFU and the “Lysozyme Inhibitor Activity” value (Lysozyme) was “shown to have Lysozyme Inhibitor Activity”. The “Galactose Oxidase Inhibitor Activity” value (Galactose Oxidase) was “shown to have Galactose Oxidase Inhibitor Activity”.

B1: Soybeans: primary soybean protease inhibitor, 20.7-22.3 kDa (protein, UniProt P01070 25-205, looked up)
Trypsin inhibitor A: DFVLDNEGNPLENGGTYYILSDITAFGGIRAAPTGNERCPLTVVQSRNELDKGIGTIISSPYRIRFIAEGHPLSLKFDSFAVIMLCVGIPTEWSVVEDLPEGPAVKIGENKDAMDGWFRLERVSDDEFNNYKLVFCPQQAEDDKCGDIGISIDHDDGTRRLVVSKNKPLVVQFQKLDKESL
In the case of B1, the Inhibitory power (protease) is listed as 1.2 times times weight.
